According to ChEMBL document CHEMBL3046594, “Bioactive metabolites from an endophytic fungus of Aspergillus species isolated from seeds of Gloriosa superba Linn” (Med Chem Res, 2013):
Values after ≈ are worked out from the molar mass of the structure shown. Active and inactive are the calls of the source. The calls are words filed in the database; no cut-off is given here.

Experiments:
[1] = tested on: Salmonella typhi; assay: Antibacterial activity against Salmonella enterica subsp. enterica serovar Typhi MTCC 1251 assessed as growth inhibition at 2 mg/mL after 24 hr by disk diffusion method; type: functional, organism-based
[2] = tested on: Saccharomyces cerevisiae; assay: Antifungal activity against Saccharomyces cerevisiae MTCC 172 assessed as growth inhibition at 2 mg/mL after 48 hr by disk diffusion method; type: functional; conditions: MTCC 172, 48 h, read-out: DIZ
[3] = tested on: Goffeauzyma gastrica; assay: Antifungal activity against Cryptococcus gastricus MTCC 1715 assessed as growth inhibition at 2 mg/mL after 48 hr by disk diffusion method; type: functional
[4] = tested on: Salmonella typhi; assay: Antibacterial activity against Salmonella enterica subsp. enterica serovar Typhi MTCC 1251 assessed as growth inhibition after 24 hr by broth dilution method; type: functional, organism-based
[5] = tested on: Candida albicans; assay: Antifungal activity against Candida albicans MTCC 3018 assessed as growth inhibition at 2 mg/mL after 48 hr by disk diffusion method; type: functional
[6] = tested on: Escherichia coli; assay: Antibacterial activity against Escherichia coli MTCC 82 assessed as growth inhibition at 2 mg/mL after 24 hr by disk diffusion method; type: functional; conditions: MTCC 82, 24 h, read-out: DIZ
[7] = tested on: Goffeauzyma gastrica; assay: Antifungal activity against Cryptococcus gastricus MTCC 1715 assessed as growth inhibition after 48 hr by broth dilution method; type: functional
[8] = tested on: Staphylococcus aureus; assay: Antibacterial activity against Staphylococcus aureus MTCC 96 assessed as growth inhibition at 2 mg/mL after 24 hr by disk diffusion method; type: functional; conditions: MTCC 96, 24 h, read-out: DIZ
[9] = tested on: Saccharomyces cerevisiae; assay: Antifungal activity against Saccharomyces cerevisiae MTCC 172 assessed as growth inhibition after 48 hr by broth dilution method; type: functional
[10] = tested on: Staphylococcus aureus; assay: Antibacterial activity against Staphylococcus aureus MTCC 96 assessed as growth inhibition after 24 hr by broth dilution method; type: functional; conditions: MTCC 96, 24 h
[11] = tested on: Pseudomonas aeruginosa; assay: Antibacterial activity against Pseudomonas aeruginosa MTCC 2642 assessed as growth inhibition after 24 hr by broth dilution method; type: functional
[12] = tested on: Bacillus subtilis; assay: Antibacterial activity against Bacillus subtilis MTCC 2451 assessed as growth inhibition at 2 mg/mL after 24 hr by disk diffusion method; type: functional; conditions: MTCC 2451, 24 h, read-out: DIZ
[13] = tested on: Escherichia coli; assay: Antibacterial activity against Escherichia coli MTCC 82 assessed as growth inhibition after 24 hr by broth dilution method; type: functional; conditions: MTCC 82, 24 h
[14] = tested on: Candida albicans; assay: Antifungal activity against Candida albicans MTCC 3018 assessed as growth inhibition after 48 hr by broth dilution method; type: functional
[15] = tested on: Pseudomonas aeruginosa; assay: Antibacterial activity against Pseudomonas aeruginosa MTCC 2642 assessed as growth inhibition at 2 mg/mL after 24 hr by disk diffusion method; type: functional
[16] = tested on: Bacillus subtilis; assay: Antibacterial activity against Bacillus subtilis MTCC 2451 assessed as growth inhibition after 24 hr by broth dilution method; type: functional; conditions: MTCC 2451, 24 h
[17] = tested on: MCF7; assay: Cytotoxicity against Homo sapiens (human) MCF7 cells assessed as growth inhibition at 1 uM after 48 hr by SRB assay; type: functional; conditions: MCF7, 48 h, read-out: GI
[18] = tested on: OVCAR-5; assay: Cytotoxicity against Homo sapiens (human) OVCAR5 cells assessed as growth inhibition at 1 uM after 48 hr by SRB assay; type: functional; conditions: OVCAR-5, 48 h, read-out: GI
[19] = tested on: THP-1; assay: Cytotoxicity against Homo sapiens (human) THP1 cells assessed as growth inhibition after 48 hr by SRB assay; type: functional, cell-based; conditions: THP-1, 48 h
[20] = tested on: MCF7; assay: Cytotoxicity against Homo sapiens (human) MCF7 cells assessed as growth inhibition after 48 hr by SRB assay; type: functional, cell-based; conditions: MCF7, 48 h
[21] = tested on: MCF7; assay: Cytotoxicity against Homo sapiens (human) MCF7 cells assessed as growth inhibition at 100 uM after 48 hr by SRB assay; type: functional; conditions: MCF7, 48 h, read-out: GI
[22] = tested on: MCF7; assay: Cytotoxicity against Homo sapiens (human) MCF7 cells assessed as growth inhibition at 10 uM after 48 hr by SRB assay; type: functional; conditions: MCF7, 48 h, read-out: GI
[23] = tested on: CV-1; assay: Cytotoxicity against Chlorocebus aethiops (African green monkey) CV1 cells assessed as growth inhibition at 30 uM after 48 hr by SRB assay; type: functional; conditions: CV-1, 48 h, read-out: GI
[24] = tested on: CV-1; assay: Cytotoxicity against Chlorocebus aethiops (African green monkey) CV1 cells assessed as growth inhibition at 50 uM after 48 hr by SRB assay; type: functional; conditions: CV-1, 48 h, read-out: GI
[25] = tested on: CV-1; assay: Cytotoxicity against Chlorocebus aethiops (African green monkey) CV1 cells assessed as growth inhibition at 100 uM after 48 hr by SRB assay; type: functional; conditions: CV-1, 48 h, read-out: GI
[26] = tested on: OVCAR-5; assay: Cytotoxicity against Homo sapiens (human) OVCAR5 cells assessed as growth inhibition at 100 uM after 48 hr by SRB assay; type: functional; conditions: OVCAR-5, 48 h, read-out: GI
[27] = tested on: OVCAR-5; assay: Cytotoxicity against Homo sapiens (human) OVCAR5 cells assessed as growth inhibition at 50 uM after 48 hr by SRB assay; type: functional; conditions: OVCAR-5, 48 h, read-out: GI
[28] = tested on: THP-1; assay: Cytotoxicity against Homo sapiens (human) THP1 cells assessed as growth inhibition at 10 uM after 48 hr by SRB assay; type: functional; conditions: THP-1, 48 h, read-out: GI
[29] = tested on: A549; assay: Cytotoxicity against Homo sapiens (human) A549 cells assessed as growth inhibition at 100 uM after 48 hr by SRB assay; type: functional; conditions: A549, 48 h, read-out: GI
[30] = tested on: OVCAR-5; assay: Cytotoxicity against Homo sapiens (human) OVCAR5 cells assessed as growth inhibition at 10 uM after 48 hr by SRB assay; type: functional; conditions: OVCAR-5, 48 h, read-out: GI
[31] = tested on: MCF7; assay: Cytotoxicity against Homo sapiens (human) MCF7 cells assessed as growth inhibition at 50 uM after 48 hr by SRB assay; type: functional; conditions: MCF7, 48 h, read-out: GI
[32] = tested on: THP-1; assay: Cytotoxicity against Homo sapiens (human) THP1 cells assessed as growth inhibition at 100 uM after 48 hr by SRB assay; type: functional; conditions: THP-1, 48 h, read-out: GI
[33] = tested on: THP-1; assay: Cytotoxicity against Homo sapiens (human) THP1 cells assessed as growth inhibition at 50 uM after 48 hr by SRB assay; type: functional; conditions: THP-1, 48 h, read-out: GI
[34] = tested on: THP-1; assay: Cytotoxicity against Homo sapiens (human) THP1 cells assessed as growth inhibition at 30 uM after 48 hr by SRB assay; type: functional; conditions: THP-1, 48 h, read-out: GI
[35] = tested on: OVCAR-5; assay: Cytotoxicity against Homo sapiens (human) OVCAR5 cells assessed as growth inhibition at 30 uM after 48 hr by SRB assay; type: functional; conditions: OVCAR-5, 48 h, read-out: GI
[36] = tested on: MCF7; assay: Cytotoxicity against Homo sapiens (human) MCF7 cells assessed as growth inhibition at 30 uM after 48 hr by SRB assay; type: functional; conditions: MCF7, 48 h, read-out: GI
[37] = tested on: Goffeauzyma gastrica; assay: Antifungal activity against Cryptococcus gastricus MTCC 1715 assessed as growth inhibition at 10 ug/disk after 48 hr by disk diffusion method; type: functional; conditions: MTCC 1715, 48 h, read-out: DIZ
[38] = tested on: Saccharomyces cerevisiae; assay: Antifungal activity against Saccharomyces cerevisiae MTCC 172 assessed as growth inhibition at 10 ug/disk after 48 hr by disk diffusion method; type: functional; conditions: MTCC 172, 48 h, read-out: DIZ
[39] = tested on: Candida albicans; assay: Antifungal activity against Candida albicans MTCC 3018 assessed as growth inhibition at 10 ug/disk after 48 hr by disk diffusion method; type: functional; conditions: MTCC 3018, 48 h, read-out: DIZ

Structure (SMILES): O=Cc1ccc(CO)o1 [AES-103]
- growth inhibition (GI) [1]: inactive
- zone of inhibition at 2000 µg/mL [2]: 8.1 mm
- growth inhibition (GI) [3]: inactive
- MIC [4]: inactive
- growth inhibition (GI) [5]: inactive
- zone of inhibition at 2000 µg/mL [6]: 9 mm
- MIC [7]: inactive
- zone of inhibition at 2000 µg/mL [8]: 13.1 mm
- MIC [9]: inactive
- MIC [10]: 200 µg/mL (≈ 1590 µM)
- MIC [11]: inactive
- zone of inhibition at 2000 µg/mL [12]: 11.5 mm
- MIC [13]: 400 µg/mL (≈ 3170 µM)
- MIC [14]: inactive
- growth inhibition (GI) [15]: inactive
- MIC [16]: 100 µg/mL (≈ 793 µM)

Structure (SMILES): CO[C@@]12[C@H](COC(N)=O)C3=C(C(=O)C(C)=C(N)C3=O)N1C[C@@H]1N[C@@H]12 [MITOMYCIN]
- inhibition of growth at 1 µM [17]: 82%
- inhibition of growth at 1 µM [18]: 71%

Structure (SMILES): CC(=O)NC12C=CC(=O)C=CC1c1c(cc(O)c(O)c1O)CC2C (stereo not given)
- growth inhibition (GI) [1]: inactive
- zone of inhibition at 2000 µg/mL [2]: 16.9 mm
- zone of inhibition at 2000 µg/mL ([3]; MTCC 1715, 48 h, read-out: DIZ): 15.3 mm
- MIC [4]: inactive
- zone of inhibition at 2000 µg/mL ([5]; MTCC 3018, 48 h, read-out: DIZ): 18.9 mm
- IC50 [19]: 30 µg/mL (≈ 91.1 µM)
- zone of inhibition at 2000 µg/mL [6]: 13.3 mm
- IC50 [20]: 50 µg/mL (≈ 152 µM)
- MIC ([7]; MTCC 1715, 48 h): 50 µg/mL (≈ 152 µM)
- inhibition of growth at 100 µM [21]: 70%
- inhibition of growth at 10 µM [22]: 26%
- inhibition of growth at 30 µM [23]: 13%
- zone of inhibition at 2000 µg/mL [8]: 15.7 mm
- inhibition of growth at 50 µM [24]: 19%
- inhibition of growth at 100 µM [25]: 35%
- inhibition of growth at 100 µM [26]: 43%
- inhibition of growth at 50 µM [27]: 33%
- MIC ([9]; MTCC 172, 48 h): 25 µg/mL (≈ 75.9 µM)
- MIC [10]: 25 µg/mL (≈ 75.9 µM)
- MIC ([11]; MTCC 2642, 24 h): > 100 µg/mL
- zone of inhibition at 2000 µg/mL [12]: 17.5 mm
- inhibition of growth at 10 µM [28]: 48%
- inhibition of growth at 100 µM [29]: 23%
- inhibition of growth at 10 µM [30]: 9%
- inhibition of growth at 50 µM [31]: 52%
- MIC [13]: 100 µg/mL (≈ 304 µM)
- inhibition of growth at 100 µM [32]: 80%
- inhibition of growth at 50 µM [33]: 67%
- inhibition of growth at 30 µM [34]: 55%
- MIC ([14]; MTCC 3018, 48 h): 12.5 µg/mL (≈ 38 µM)
- zone of inhibition at 2000 µg/mL ([15]; MTCC 2642, 24 h, read-out: DIZ): 11.9 mm
- inhibition of growth at 30 µM [35]: 17%
- inhibition of growth at 30 µM [36]: 33%
- MIC [16]: 50 µg/mL (≈ 152 µM)

Structure (SMILES): OC(Cn1cncn1)(Cn1cncn1)c1ccc(F)cc1F [FLUCONAZOLE]
- zone of inhibition at 10 µg/disc [37]: 19.7 mm
- zone of inhibition at 10 µg/disc [38]: 21 mm
- zone of inhibition at 10 µg/disc [39]: 20 mm
